{
  "source": "patent US20050026949A1",
  "about": "“Methods of therapeutic treatment using amounts of retinoids without regard to body weight” (Allergan, Inc., priority 2003, published 2005)",
  "key": {"RXRs": {"system": "RXRs", "assay": "Activation of RXRs", "assay_type": "cell-based"}, "RARs": {"system": "RARs", "assay": "Activation of RARs", "assay_type": "cell-based"}, "[1]": {"conditions": "in vivo; cited from earlier work"}, "[2]": {"system": "patients in the studies of acitretin", "conditions": "published data (N = 525); cited from earlier work"}, "[3]": {"conditions": "oral, cited from earlier work; for bioavailability in the presence of food: Colburn et al"}, "[4]": {"conditions": "cited from earlier work"}, "sebaceous glands": {"system": "sebaceous glands", "conditions": "published reports (Geiger); cited from earlier work"}, "[5]": {"system": "patients in the studies of isotretinoin", "conditions": "published data (N = 525); cited from earlier work"}, "[6]": {"assay": "Body weight effect on plasma tazarotenic acid Cmax and AUC (Example 7)", "assay_type": "in vivo, human", "conditions": "6 mg tazarotene daily, day 9", "protocol": "The LC-MS/MS test for simultaneous detection of tazarotene and tazarotenic acid may be run as follows. One ml of plasma (EDTA-treated) is diluted with 1.0 ml of water. Diluted plasma is extracted using solid phase extraction (SPE) on a C18 cartridge. The eluate is evaporated, reconstituted in a water/methanol-based mobile phase, and injected onto a 4.6×50 mm, 3 μm pore size C-8 reverse phase high pressure liquid chromatography (HPLC) column (Agilent, Wilmington, Del.). Compounds are gradient-eluted at 1.2 mL/min and detected using an API 3000 triple quadrupole mass spectrometer with an Atmospheric Pressure Chemical Ionization (APCI) source (PE-Sciex, Concord, Ontario, Canada). Molecular reaction monitoring enhances the sensitivity and selectivity of this assay by collisionally dissociating the protonated molecules for the analyte and an internal standard thereby forming the product ions. The specific precursor-product ion pair monitored are m/z 352→324 for tazarotene, m/z 359→331 for the tazarotene internal standard, m/z 324→294 for tazarotenic acid, and m/z 331+298 for the tazarotenic acid internal standard. The lower limit of quantitation at assay range tested is 0.1 ng/mL, with a coefficient of variation and deviation from nominal concentration of <15%. […]"}, "[7]": {"conditions": "topical administration of tazarotene; cited from earlier work"}, "[8]": {"assay": "Food effect on pharmacokinetics of tazarotenic acid after oral tazarotene (Example 1)", "assay_type": "in vivo, human", "conditions": "6.3 mg oral tazarotene", "protocol": "For the purposes of this application, the bioavailability of a drug may be based on the human pharmokinetic parameters of maximum blood concentration (Cmax) and Area under the blood concentration-time curve (AUC).\nThe LC-MS/MS test for simultaneous detection of tazarotene and tazarotenic acid may be run as follows. One ml of plasma (EDTA-treated) is diluted with 1.0 ml of water. Diluted plasma is extracted using solid phase extraction (SPE) on a C18 cartridge. The eluate is evaporated, reconstituted in a water/methanol-based mobile phase, and injected onto a 4.6×50 mm, 3 μm pore size C-8 reverse phase high pressure liquid chromatography (HPLC) column (Agilent, Wilmington, Del.). Compounds are gradient-eluted at 1.2 mL/min and detected using an API 3000 triple quadrupole mass spectrometer with an Atmospheric Pressure Chemical Ionization (APCI) source (PE-Sciex, Concord, Ontario, Canada). Molecular reaction monitoring enhances the sensitivity and selectivity of this assay by collisionally dissociating the protonated molecules for the analyte and an internal standard thereby forming the product ions. The specific precursor-product ion pair monitored are m/z 352→324 for tazarotene, m/z 359→331 for the tazarotene internal standard, m/z 324→294 for tazarotenic acid, and m/z 331+298 for the tazarotenic acid internal standard. The lower limit of quantitation at assay range tested is 0.1 ng/mL, with a coefficient of variation and deviation from nominal concentration of <15%."}, "RAR-A": {"molecular_target": "T1, RAR-A (Homo sapiens, UniProt P10276)", "T1 sequence (P10276 1-462)": "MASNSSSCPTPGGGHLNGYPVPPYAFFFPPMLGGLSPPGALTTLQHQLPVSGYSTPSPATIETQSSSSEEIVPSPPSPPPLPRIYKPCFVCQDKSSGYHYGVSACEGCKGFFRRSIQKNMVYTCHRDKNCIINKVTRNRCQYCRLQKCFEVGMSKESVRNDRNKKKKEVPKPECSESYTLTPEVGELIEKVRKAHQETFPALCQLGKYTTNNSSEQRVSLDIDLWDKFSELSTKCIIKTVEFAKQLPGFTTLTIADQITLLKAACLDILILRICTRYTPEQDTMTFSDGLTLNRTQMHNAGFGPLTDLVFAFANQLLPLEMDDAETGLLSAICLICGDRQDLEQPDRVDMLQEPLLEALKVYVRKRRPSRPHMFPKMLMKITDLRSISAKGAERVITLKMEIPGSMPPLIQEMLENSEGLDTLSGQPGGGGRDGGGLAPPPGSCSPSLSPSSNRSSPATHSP", "assay": "RAR-alpha activity", "assay_type": "cell-based"}},
  "data": [
    {"smiles": "CC1(C)CC[S+]([O-])c2ccc(C#Cc3ccc(C(=O)O)cn3)cc21", "note": "(stereo not drawn) [AGN 190844]", "values": [
      {"measurement": "activation of RXRs", "setting": "RXRs", "value": "does not activate"},
      {"measurement": "activation of RARs", "setting": "RARs", "value": "does not activate"}
    ]},
    {"smiles": "COc1cc(C)c(/C=C/C(C)=C/C=C/C(C)=C/C(=O)O)c(C)c1C", "note": "[Acitretin, acitretin]", "values": [
      {"measurement": "bioavailability in relation to body weight", "setting": "[1]", "value": "increased with a reduced body weight"},
      {"measurement": "Alopecia", "setting": "[2]", "value": "319 (60.8) NUMBER OF (%) OF PATIENTS"},
      {"measurement": "Arthralgia", "setting": "[2]", "value": "102 (19.4) NUMBER OF (%) OF PATIENTS"},
      {"measurement": "Atrophy of skin", "setting": "[2]", "value": "64 (12.2) NUMBER OF (%) OF PATIENTS"},
      {"measurement": "Back pain", "setting": "[2]", "value": "41 (7.8) NUMBER OF (%) OF PATIENTS"},
      {"measurement": "Cheilitis", "setting": "[2]", "value": "429 (81.7) NUMBER OF (%) OF PATIENTS"},
      {"measurement": "Dry Skin", "setting": "[2]", "value": "174 (33.1) NUMBER OF (%) OF PATIENTS"},
      {"measurement": "Dry mouth/Oral dryness", "setting": "[2]", "value": "76 (14.5) NUMBER OF (%) OF PATIENTS"},
      {"measurement": "Epistaxis", "setting": "[2]", "value": "61 (11.6) NUMBER OF (%) OF PATIENTS"},
      {"measurement": "Erythematous rash/Erythema", "setting": "[2]", "value": "57 (10.9) NUMBER OF (%) OF PATIENTS"},
      {"measurement": "Hyperesthesia", "setting": "[2]", "value": "66 (12.6) NUMBER OF (%) OF PATIENTS"},
      {"measurement": "Nail Disorder", "setting": "[2]", "value": "170 (32.4) NUMBER OF (%) OF PATIENTS"},
      {"measurement": "Paresthesia", "setting": "[2]", "value": "56 (10.7) NUMBER OF (%) OF PATIENTS"},
      {"measurement": "Paronychia/Nail disorder", "setting": "[2]", "value": "66 (12.6) NUMBER OF (%) OF PATIENTS"},
      {"measurement": "Pruritus", "setting": "[2]", "value": "157 (29.9) NUMBER OF (%) OF PATIENTS"},
      {"measurement": "Rhinitis", "setting": "[2]", "value": "153 (29.1) NUMBER OF (%) OF PATIENTS"},
      {"measurement": "Rigors/Chills", "setting": "[2]", "value": "67 (12.8) NUMBER OF (%) OF PATIENTS"},
      {"measurement": "Skin peeling/Desquamation", "setting": "[2]", "value": "345 (65.7) NUMBER OF (%) OF PATIENTS"},
      {"measurement": "Sticky skin/Skin disorder", "setting": "[2]", "value": "129 (24.6) NUMBER OF (%) OF PATIENTS"},
      {"measurement": "Xerophthalmia/Eye disorder", "setting": "[2]", "value": "112 (21.3) NUMBER OF (%) OF PATIENTS"},
      {"measurement": "bioavailability in the presence of food", "setting": "[3]", "value": "bioavailability is increased in the presence of food"},
      {"measurement": "effect on contraceptive effect of microdosed progestin preparations", "setting": "[4]; in vivo", "value": "interferes with the contraceptive effect"}
    ]},
    {"smiles": "CC1=C(/C=C/C(C)=C/C=C/C(C)=C\\C(=O)O)C(C)(C)CCC1", "note": "[Isotretinoin, isotretinoin]", "values": [
      {"measurement": "bioavailability in relation to body weight", "setting": "[1]", "value": "increased with a reduced body weight"},
      {"measurement": "bioavailability in the presence of food", "setting": "[3]", "value": "bioavailability is increased in the presence of food"},
      {"measurement": "total dose needed to reach the same peak blood concentration in the fasted state as following a high fat meal", "setting": "[3]", "value": "more than doubled"},
      {"measurement": "effect on blood concentrations of coadministered contraceptive components", "setting": "[4]; coadministered contraceptive tablets", "value": "decreases blood concentrations of both ethinyl estradiol and norethindrone"},
      {"measurement": "decrease in sebum secretion rate", "setting": "sebaceous glands", "value": "about 90%"},
      {"measurement": "Cheilitis", "setting": "[5]", "value": "472 (90.2) NUMBER OF (%) OF PATIENTS"},
      {"measurement": "Conjunctivitis", "setting": "[5]", "value": "201 (38.4) NUMBER OF (%) OF PATIENTS"},
      {"measurement": "Desquamation central face/Desquamation", "setting": "[5]", "value": "187 (35.8) NUMBER OF (%) OF PATIENTS"},
      {"measurement": "Dry Skin", "setting": "[5]", "value": "172 (32.9) NUMBER OF (%) OF PATIENTS"},
      {"measurement": "Dry nose", "setting": "[5]", "value": "136 (26.0) NUMBER OF (%) OF PATIENTS"},
      {"measurement": "Epistaxis", "setting": "[5]", "value": "121 (23.1) NUMBER OF (%) OF PATIENTS"},
      {"measurement": "Fingertip peeling/Desquamation", "setting": "[5]", "value": "63 (12.0) NUMBER OF (%) OF PATIENTS"},
      {"measurement": "Headache", "setting": "[5]", "value": "44 (8.4) NUMBER OF (%) OF PATIENTS"},
      {"measurement": "Irritation of eyes", "setting": "[5]", "value": "85 (16.3) NUMBER OF (%) OF PATIENTS"},
      {"measurement": "Pruritus", "setting": "[5]", "value": "127 (24.3) NUMBER OF (%) OF PATIENTS"},
      {"measurement": "Red Scaly face/Desquamation", "setting": "[5]", "value": "54 (10.3) NUMBER OF (%) OF PATIENTS"},
      {"measurement": "Skin fragility/Skin disorder", "setting": "[5]", "value": "164 (31.4) NUMBER OF (%) OF PATIENTS"}
    ]},
    {"smiles": "C=C(c1ccc(C(=O)O)cc1)c1cc2c(cc1C)C(C)(C)CCC2(C)C", "note": "[bexarotene]", "values": [
      {"measurement": "bioavailability in the presence of food", "setting": "[3]", "value": "bioavailability is increased in the presence of food"},
      {"measurement": "effect on plasma concentration of coadministered tamoxifen", "setting": "[4]; coadministration with tamoxifen", "value": "reduced plasma concentration of tamoxifen"}
    ]},
    {"smiles": "CCOC(=O)/C=C(C)/C=C/C=C(C)/C=C/c1c(C)cc(OC)c(C)c1C", "note": "[etretinate]", "values": [
      {"measurement": "bioavailability in relation to body weight", "setting": "[1]", "value": "increased with a reduced body weight"}
    ]},
    {"smiles": "CC1(C)CCSc2ccc(C#Cc3ccc(C(=O)O)cn3)cc21", "note": "[tazarotenic acid]", "values": [
      {"measurement": "correlation of Cmax or AUC with body weight", "setting": "[6]", "value": "no correlation between either Cmax or AUC and body weight"},
      {"measurement": "maximum blood concentration of tazarotenic acid", "setting": "[7]", "value": "less than 30 ng/ml"},
      {"measurement": "activation of RXRs", "setting": "RXRs", "value": "does not activate"},
      {"measurement": "receptor specificity and selectivity", "setting": "RARs", "value": "specificity for the RARs and selectivity for RAR-β and RAR-γ"},
      {"measurement": "90% CI ratio of Cmax values", "setting": "[8]; fed vs fasted", "value": "partially outside the 80-125% boundary"},
      {"measurement": "90% confidence intervals of AUC ratios (test/reference)", "setting": "[8]; fed vs fasted", "value": "completely within the 80-125% boundary"},
      {"measurement": "average ratio of Cmax (test/reference)", "setting": "[8]; fed vs fasted, Day 0", "value": 1.00},
      {"measurement": "average ratio of Cmax (test/reference)", "setting": "[8]; fed vs fasted, Day 9", "value": 0.829},
      {"measurement": "effect of high-fat meal on bioavailability or pharmacokinetics of tazarotenic acid", "setting": "[8]; within 30 minutes after high fat breakfast vs after 8-10 hour fast, single and multiple dose, healthy subjects", "value": "does not substantially affect"},
      {"measurement": "RAR-A activity", "setting": "RAR-A", "value": "minimal"}
    ]}
  ]
}
